Settings: deionized water, approximately 22° C., room temperature
Method: In a vial that contains pre-weighed amount of solid, deionized water was added in small increments at approximately 22° C. The solid/liquid mixture was agitated by a vortex mixer and held at room temperature. Continued to add deionized water and repeated the mixing until the solid was fully dissolved.

tenofovir alafenamide hemifumarate [TAF Hemifumarate]
Solubility: 20 mg/mL

Reference: patent US12202849B2, “Crystalline forms of tenofovir alafenamide” (Gilead Sciences, Inc., priority 2017, dated 2025)
